Tests used:
[1] = animal toxicology studies; cited from earlier work
[2] = cited from earlier work
[3] = Pharmacokinetics of immediate-release mazindol after oral administration; format: in vivo, human; details: immediate release formulation; from half-life
Procedure: In U.S. Pat. No. 8,293,779, it is disclosed that, after single or repeated oral administration, mazindol is absorbed with a time to maximum concentrations (Tmax) of 2-4 hours.
Such immediate release compositions thus require twice daily administration, which limits compliance in the special case of children of school age, as the second administration is often requested to be done at midday, i.e. during school time. Even given the fact that the immediate release tablet undergoes complete in vitro dissolution within 1 hour, the time to maximum concentrations (Tmax) occurs at 3-4 hours after drug administration in healthy volunteers (Kim 2009). Rapid initial absorption will allow the earlier achievement of adequate systemic exposure to achieve desired efficacy (e.g., administer early and have onset of efficacy 1-2 hours later, when patient is at school or work).

[4] = cited from earlier work; remark: listed apart in the source
[5] = In vitro TIM gastrointestinal system, fasted vs fed; format: in vitro ADME, human; details: formulated according to the invention
Text: As discussed, this is particularly beneficial for ADHD patients, for this initial amount of mazindol provided increases patients' mental alertness and acuity at the start of their day (e.g., driving to work, starting school).

[6] = clinical pharmacokinetic studies; cited from earlier work

OC1(c2ccc(Cl)cc2)c2ccccc2C2=NCCN21 (centres unmarked) [mazindol, 5-(4-chlorophenyl)-2,5-dihydro-3H-imadazo[2,1-a]isoindol-5-ol]
carcinogenic effect [1]: no carcinogenic effect
mutagenic effect [1]: no mutagenic effect
toxic potential [1]: very low
toxicology effect in reproduction [1]: no toxicology effect in reproduction
hydrolytic stability ([2]; moderate temperatures, water / neutral and alkaline aqueous solutions, human plasma): undergoes hydrolysis at moderate temperatures with minimal amount of water
solubility as function of pH ([2]; most soluble at stomach pH, least in the colon): decreases with increasing pH
time to reach steady-state concentrations [3]: 30 to 55 h
dose dependence of pharmacokinetics ([4]; doses between 1 mg/day and 4 mg/day, immediate-release formulations): linear (independent of the dose)
time to maximum concentrations (Tmax) ([4]; single or repeated oral administration, U.S. Pat. No. 8,293,779): 2 to 4 h
Tmax in the fed state compared to the fasted state [5]: delayed, compared to the fasted state, by one hour or more
absorption in the colon [6]: not likely to be absorbed in the colon
